Data reported in ChEMBL document CHEMBL1201862, “PubChem BioAssay data set” (2004).
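Cultured in 96-well plates, cells were exposed to test compound for 48 hours across five concentrations. The concentration for 50% growth inhibition is given as GI50.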 Calls of active or inactive are those of the source. No stated cut-off is given here; in the data, active = GI50 up to about 1.1 µM and inactive = higher.

How the values were obtained:
Assay in all cases: NCI anticancer screen, dose series, 48 h
786-0 = test system: 786-0
A498 = test system: A498
A549 = test system: A549
BT-549 = test system: BT-549
CAKI-1 = test system: CAKI-1
CCRF-CEM = test system: CCRF-CEM
COLO 205 = test system: COLO 205
DU-145 = test system: DU-145
EKVX = test system: EKVX
HCC 2998 = test system: HCC 2998
HCT-116 = test system: HCT-116
HCT-15 = test system: HCT-15
HL-60 = test system: HL-60
HOP-62 = test system: HOP-62
HOP-92 = test system: HOP-92
HT-29 = test system: HT-29
Hs-578T = test system: Hs-578T
IGROV-1 = test system: IGROV-1
KM12 = test system: KM12
LOX IMVI = test system: LOX IMVI
M14 = test system: M14
MCF7 = test system: MCF7
MDA-MB-231 = test system: MDA-MB-231
MDA-MB-435 = test system: MDA-MB-435
MDA-N = test system: MDA-N
MOLT-4 = test system: MOLT-4
Malme-3M = test system: Malme-3M
NCI-H226 = test system: NCI-H226
NCI-H23 = test system: NCI-H23
NCI-H460 = test system: NCI-H460
NCI-H522 = test system: NCI-H522
NCI/ADR-RES = test system: NCI/ADR-RES
OVCAR-3 = test system: OVCAR-3
OVCAR-4 = test system: OVCAR-4
OVCAR-5 = test system: OVCAR-5
OVCAR-8 = test system: OVCAR-8
RPMI-8226 = test system: RPMI-8226
RXF 393 = test system: RXF 393
SF-268 = test system: SF-268
SF-295 = test system: SF-295
SF-539 = test system: SF-539
SK-MEL-28 = test system: SK-MEL-28
SK-MEL-2 = test system: SK-MEL-2
SK-MEL-5 = test system: SK-MEL-5
SK-OV-3 = test system: SK-OV-3
SN12C = test system: SN12C
SNB-19 = test system: SNB-19
SR = test system: SR
SW-620 = test system: SW-620
T47D = test system: T47D
U-251 = test system: U-251
UACC-257 = test system: UACC-257
UACC-62 = test system: UACC-62
UO-31 = test system: UO-31

CCOC(=O)C1(C(=O)OCC)C=C(c2ccccc2)N(C2OC(COC(C)=O)C(OC(C)=O)C(OC(C)=O)C2OC(C)=O)C1=S (centres undefined)
GI50 (786-0): > 100 µM (inactive) | GI50 (A498): 85.1 µM (inactive) | GI50 (A549): 59.2 µM (inactive) | GI50 (BT-549): 72.3 µM (inactive) | GI50 (CAKI-1): > 100 µM (inactive) | GI50 (CCRF-CEM): 33.9 µM (inactive) | GI50 (COLO 205): > 100 µM (inactive) | GI50 (DU-145): > 100 µM (inactive) | GI50 (EKVX): > 100 µM (inactive) | GI50 (HCC 2998): > 100 µM (inactive) | GI50 (HCT-116): > 100 µM (inactive) | GI50 (HCT-15): > 100 µM | GI50 (HL-60): 22.9 µM (inactive) | GI50 (HOP-62): > 100 µM (inactive) | GI50 (HOP-92): 93.3 µM (inactive) | GI50 (HT-29): > 100 µM (inactive) | GI50 (Hs-578T): 68.7 µM (inactive) | GI50 (IGROV-1): > 100 µM (inactive) | GI50 (KM12): 45.6 µM (inactive) | GI50 (LOX IMVI): > 100 µM (inactive) | GI50 (M14): 56.5 µM (inactive) | GI50 (MCF7): 44.7 µM (inactive) | GI50 (MDA-MB-231): > 100 µM (inactive) | GI50 (MDA-MB-435): 54 µM (inactive) | GI50 (MDA-N): > 100 µM (inactive) | GI50 (MOLT-4): 42.4 µM (inactive) | GI50 (Malme-3M): > 100 µM (inactive) | GI50 (NCI-H226): > 100 µM (inactive) | GI50 (NCI-H23): > 100 µM (inactive) | GI50 (NCI-H460): > 100 µM (inactive) | GI50 (NCI-H522): 73.1 µM (inactive) | GI50 (NCI/ADR-RES): 64.1 µM (inactive) | GI50 (OVCAR-3): > 100 µM (inactive) | GI50 (OVCAR-4): 51.6 µM (inactive) | GI50 (OVCAR-5): > 100 µM (inactive) | GI50 (OVCAR-8): > 100 µM (inactive) | GI50 (RPMI-8226): 17 µM (inactive) | GI50 (RXF 393): > 100 µM (inactive) | GI50 (SF-268): > 100 µM (inactive) | GI50 (SF-295): > 100 µM (inactive) | GI50 (SF-539): > 100 µM (inactive) | GI50 (SK-MEL-28): > 100 µM (inactive) | GI50 (SK-MEL-2): 36.8 µM (inactive) | GI50 (SK-MEL-5): > 100 µM (inactive) | GI50 (SK-OV-3): 70.3 µM (inactive) | GI50 (SN12C): > 100 µM (inactive) | GI50 (SNB-19): > 100 µM (inactive) | GI50 (SR): > 100 µM (inactive) | GI50 (SW-620): > 100 µM (inactive) | GI50 (T47D): > 100 µM (inactive) | GI50 (U-251): > 100 µM (inactive) | GI50 (UACC-257): 90.4 µM (inactive) | GI50 (UACC-62): 57.7 µM (inactive) | GI50 (UO-31): 61.5 µM (inactive)
